Results as given in patent US10414774B2, “Compound useful for altering the levels of bile acids for the treatment of diabetes and cardiometabolc disease” (Merck Sharp & Dohme Corp., priority 2016, dated 2019).
Where two headings read alike, the source gives them in different places.

Columns and labels:
[1] = target: T1, Human CYP8B1 (Homo sapiens, UniProt Q9UNU6)
T1 sequence (Q9UNU6 1-501): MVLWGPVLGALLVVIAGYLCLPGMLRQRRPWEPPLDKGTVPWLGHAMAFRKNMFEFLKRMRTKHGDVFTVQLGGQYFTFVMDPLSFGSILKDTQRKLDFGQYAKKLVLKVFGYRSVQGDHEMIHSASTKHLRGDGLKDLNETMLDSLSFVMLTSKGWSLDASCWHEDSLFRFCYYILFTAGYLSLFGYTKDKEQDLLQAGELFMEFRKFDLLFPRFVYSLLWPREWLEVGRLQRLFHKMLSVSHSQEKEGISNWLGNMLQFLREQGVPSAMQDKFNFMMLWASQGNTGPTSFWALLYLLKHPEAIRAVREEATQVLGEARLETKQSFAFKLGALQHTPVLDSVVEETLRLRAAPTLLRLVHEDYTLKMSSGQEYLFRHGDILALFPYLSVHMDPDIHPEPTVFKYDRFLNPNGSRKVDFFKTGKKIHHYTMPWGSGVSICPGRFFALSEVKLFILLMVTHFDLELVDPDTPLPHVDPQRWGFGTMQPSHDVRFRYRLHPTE
Experimental: (§1) To a 384 well polypropylene plate (Corning 3656), 250 nl of inhibitor in 100% DMSO (1.25% final DMSO concentration) was pre-plated using an Echo liquid handler (Labcyte Inc.). Human liver microsomes (Xenotech) were diluted in of 0.1 M phosphate buffer, pH 7.4, at a concentration of 65 μg/ml and 15 μL was added to the 384 well plate. The plates were incubated at ambient room temperature for 30 minutes. After pre-incubation with inhibitor, the reaction was initiated by adding 5 μl of substrate solution (4.0 μM 7a-hydroxy-4-cholesten-3-one (Toronto Research Chemicals), 2 mM of NADPH (Sigma), 0.1 M phosphate buffer (pH 7.4). The reaction was carried out for 45 minutes at ambient room temperature and was quenched by the addition of 50 μl of acetonitrile+0.1% vol/vol formic acid (FA)+300 nM 7α-hydroxy-4-cholesten-3-one-d7 (Toronto Research Chemicals). The plates were sealed and centrifuged at 3000 rpm for 5 minutes. Plates were loaded onto the Agilent RapidFire RF300 HTMS system, wherein samples were sipped for 600 ms, and the sip sensor detection signals the diversion of sample from the loop onto a C4 solid phase extraction (SPE) cartridge, where salts are washed off for 2500 ms with a mobile phase of water with 0.1% vol/vol FA at a flow rate of 1.5 ml/min. The column path was switched, and the sample was eluted off the cartridge and flowed into the mass spectrometer for 3000 ms with a mobile phase of acetonitrile and 0.1% vol/vol FA at a flow rate of 1.25 ml/min. The aspirator tip was washed separately with water and acetonitrile between sample aspirations (each for 600 ms) to minimize carryover contamination. Mass spectrometry was carried out using a Sciex API4000 triple quadrupole mass spectrometer (Applied Biosystems, Concord, ON, Canada) equipped with electrospray ionization (ESI) operated in the positive-ion mode. The product 7α,12α-dihydroxy-4-cholesten-3-one and internal standard 7α-hydroxy-4-cholsten-3-one-d7 were detected using multiple reaction monitoring (MRM) with Q1/Q3 transitions at m/z 417.3 to 381.3 and m/z 408.3 to 390.3, respectively, with a dwell time of 100 ms and a collision energy of 24 V for each transition. The mass spectrometer used an ESI voltage of 5000 V and a source temperature of 650° C. Extracted ion chromatograms for each transition were integrated and processed using the RapidFire Integrator software. The data for each well were normalized by monitoring product conversion with the ratio of AUCproduct/(AUCinternal standard). The data was then fitted to a four parameter logistic fit using ActivityBase Software to calculate an IC50 of the inhibitor.

[2] = target: T1, Human CYP8B1; test: Human CYP8B1 Liver Microsome Assay; conditions: Human CYP8B1 IC50, human liver microsomes; substrate 7a-hydroxy-4-cholesten-3-one, NADPH; RapidFire MS detection of 7α,12α-dihydroxy-4-cholesten-3-one
Experimental: as §1

| IC50 [1] [µM] | IC50 [2] [nM] | Molecule |
| --- | --- | --- |
| 4.5 |  | 6-chloro-4-[(3S,4S)-4-(6,7-dihydro[1,2,3]triazolo[1,5-a]pyrazin-5-(4H)-ylcarbonyl)-3-methylpiperidin-1-yl]-2-methylquinoline-3-carbonitrile [Example 94] |
|  | 19 | Cc1nc2ccc(Cl)cc2c(N2CC[C@H](C(=O)N3CCc4sc(C(F)(F)F)nc4C3)[C@H](C)C2)c1C#N [Example 98, 6-chloro-2-methyl-4-[(3S,4S)-3-methyl-4-{[2-(trifluoromethyl)-6,7-dihydro[1,3]thiazolo[4,5-c]pyridin-5(4H)-yl]carbonyl}piperidin-1-yl]quinoline-3-carbonitrile] |
